According to US5608095A, “Alkyl-4-silyl-phenols and esters thereof as antiatherosclerotic agents” (Hoechst Marion Roussel, Inc., priority 1996, dated 1997):
Like-named read-outs stand apart in the source and are kept apart here.

How the values were obtained:
[1] = test system: serum cholesterol, LDL, HDL, triglycerides; assay: Serum lipids and lipoprotein cholesterol in cholesterol-fed female New Zealand White rabbits; type: in vivo; conditions: Oryctolagus cuniculus, po, 168 h, rabbit serum, 7 days; for response vs control in vivo at 0.4 %: diet 0.4%; for response vs control in vivo at 0.26 %: diet 0.26%
Procedure: (§1) Five independent experiments were performed in the following manner. […] Female New Zealand White rabbits (Hazelton, ~2.0-2.3 kg) were fed 0.2% cholesterol enriched rabbit chow (Purina #5322) with or without 0.4% MDL compound (except, MDL 108,804 at 0.26% and MDL 103,491 repeated at 0.6%). The MDL compounds were solubilized in 100% ethanol. MDL 108,208 was not soluble in 100% ethanol, but it was soluble in diethyl ether:ethanol (3:2 by volume). The chow was sprayed with the MDL mixtures and allowed to dry overnight in a chemical fume hood. Control chow was sprayed with ethanol. Rabbits were fed 100 grams food per day for 7 days (0.6% MDL 103,491 were fed for 14 days); water was available ad libitum. On day 7, rabbits (fasted overnight) were bled (~2 mL) from marginal ear vein; 0.6% MDL 103,491 treated rabbits were tested on day 14. They were euthanized by carbon dioxide overdose. The total body and liver weights were recorded in grams. Food consumption was recorded as grams.cndot.day^-1 .cndot.rabbit^-1. Aliquots of fresh serum were used for clinical chemistries, lipoprotein cholesterol determination, thiobarbituric acid reactive substances (TBARS) and compound and metabolite concentrations in serum. Livers (~5 gram aliquots) were frozen at -20° C. for compound and metabolite concentration determination at a later time.
Blood was allowed to clot at room temperature for 30 minutes. Serum was obtained after centrifugation for 10 min at 5° C. at 3000 rpm in a Beckman GPKR centrifuge with a GH rotor. Fresh serum was analyzed by a COBAS MIRA autoanalyzer (Roche Diagnostics) using Roche diagnostic reagents for total cholesterol (CHOL, kit #44334) and triglyceride (TG, kit #44120). Cholesterol and triglycerides were calculated as mg/dL.
Lipoprotein fractions (very low density lipoprotein, VLDL, low density lipoprotein, LDL and high density lipoprotein, HDL) were separated on a Sepharose 6HR column (1×30 cm, Pharmacia) attached to a Waters Powerline HPLC system. Fifty μL of serum were injected onto the column and eluted with phosphate buffered saline, pH 7.4, at a flow rate of 0.5 mL/min. Cholesterol reagent (Roche Diagnostics, kit #44334, diluted with 20 mL water and then with 20 mL of 0.9% saline) was added at 0.2 mL/min to the post column eluant and incubated in a knitted PFTE Kratos reaction coil (Applied Biosystems) at 37° C. for 5 min. Absorbance was measured at 500 nm. The lipoprotein subfractions were quantitated as follows: [formula]

[2] = HPLC quantitation of compound and metabolite concentration in rabbit serum and liver; type: in vivo, female New Zealand White rabbits; conditions: 7 days; for Liver Parent = parent compound concentration: rabbit liver; for Serum Parent = parent compound concentration: rabbit serum
Procedure: as §1
Serum and liver concentrations of parent compounds and the metabolites, bisphenol and diphenoquinone, were determined by reverse phase HPLC using a Waters 990 Powerline system. Livers (1 gram) were homogenized with 5.0 mL PBS, pH 7.4, using a Polytron tissue homogenizer at setting 5 for 20-30 seconds. Serum or liver homogenates were extracted as follows: 100 μL of either serum or homogenate were added to 2.0 mL diethyl ether:ethanol (3:1) while vortexing the tube. The sample tubes were capped and centrifuged for 10 min at 5° C. at 3500 rpm in a Beckman GPKR centrifuge with a GH 3.7 rotor. The supernatants were transferred to clean tubes and dried under N2. Samples were reconstituted with 200 μL of acetonitrile:hexane:0.1M ammonium acetate (90:6.5:3.5, by vol.). Then, 100 μL were injected onto a Waters Deltapak C18-300 Å column, and eluted with an 83% acetonitrile:17% water mobile phase at a flow rate of 1.5 mL/min. Absrobances at the wavelengths of 240, 254, and 420 nm were recorded. Compound concentrations were calculated from known quantities of authentic parent compounds after correction for recovery; the range of recovery from spiked samples was 40 to 100%. The lowest detectable limit for this class of compounds was ~0.5 μg/mL. Concentrations were calculated as μg/mL of serum and μg/g of liver.

[3] = test system: oxidation of serum lipids; assay: TBARS assay, serum of cholesterol-fed rabbits; type: in vivo, female New Zealand White rabbits; conditions: Oryctolagus cuniculus, po, 168 h, rabbit serum, 7 days, read-out: TBARS, percent of control
Procedure: as §1
TBARS are a qualitative indication of the oxidation of lipids in a sample. In this assay the oxidation of serum lipids is initiated with CuSO4, resulting in the formation of aldehydes, such as malondialdehyde (MDA). Upon incubation with thiobarbituric acid, the absorbance of the aldehydes can be detected at 530-540 nm. TBARS values which are lower than control serum values indicate the relative ability of a compound to inhibit the oxidation. TBARS were measured as follows: 50 μL of serum were mixed with 50 μL of 0.9% saline and 400 μL of a 5 mM CuSO4 solution and incubated at 37° C. for 5 hr. The reactions were stopped by addition of 1.0 mL of 20% trichloroacetic acid. Then 1.0 mL of 0.67% thiobarbituric acid in 0.05N sodium hydroxide was added, mixed, and the samples incubated for 30 min at 90° C. Samples were centrifuged briefly to pellet undissolved material, and the supernatants were transferred to a 96-well microtiter plate. Absorbances were measured at 540 nm using a Biotek model EL311 microplate reader. The nmoles of MDA produced were calculated from a standard curve of 0 to 10 nmoles of MDA prepared from malonaldehyde bis(dimethylacetal). Serum samples from treated rabbits were compared to serum samples from control rabbits that received no MDL compound.

[4] = Food consumption, body and liver weight in cholesterol-fed rabbits; type: in vivo, female New Zealand White rabbits; conditions: 7 days; for body wt., percent of control / lw/bw (liver weight/body weight), percent of control: rabbit
Procedure: as §1

ICAM-1 = assay: Cell surface ELISA for ICAM-1 in human umbilical vein endothelial cells (HUVEC), TNF-alpha induced; type: cell-based; conditions: 50 μM, average of two runs, numbers in parentheses represent negative values
Procedure: (§2) Cell Surface ELISA for VCAM-1/ICAM-1
(§3) Proliferating human umbilical vein endothelial cells (HUVEC) or human aortic smooth muscle cells (HASMC) from Clonetics (San Diego, Calif.) were plated onto 96-well plates in 100 μL medium per well at 20,000 cells per cm^2. The cultures were maintained in growth medium (EGM or SMGM2, Clonetics, San Diego, Calif.) for two days prior to addition of cytokines or drugs. Cytokines plus or minus compounds were added for 20 to 24 hours prior to analysis for adhesion molecule levels. Tumor necrosis factor (Genzyme, Cambridge, Mass.) was added to cultures at 500-1000 units/mL. Interleukin-4 (GIBCO-BRL, Gaithersburg, Md.) was added to cultures at 100-200 pg/mL. (Additions were made by transferring 100 [μL of cytokines plus compounds serially diluted on a separate 96-well plate into the plates containing cells. The medium on the cultures was not exchanged prior to addition of effectors). The culture medium was removed, and the monolayers were washed twice with Hanks buffered saline solution (HBSS) at room temperature. The primary antibody (anti-human VCAM-1 from Upstate Biotechnology, Inc., Lake Placid, N.Y. or anti-human ICAM-1 from Immunotech, Inc., Westbrook, Me.) was added to each well (1 μg/mL in HBSS plus 5% newborn calf serum, GIBCO-BRL, Gaithersburg, Md.) and incubated at 37° C. for 1 hr. The wells were washed twice with HBSS, then 100 μL of a 1/1000 dilution of goat anti-mouse IgG conjugated to horse radish peroxidase (BioRad, Hercules, Calif.) in HBSS plus 5% newborn calf serum was added to each well and incubated for 1 hr at 37° C. The wells were washed three times with HBSS, then 100 μL of TMB substrate (BioRad, Hercules, Calif.) was added to each well. The reaction was stopped after blue color developed by addition of 50 μL of 1N H2 SO4. Absorbance is measured at 450 nm with a plate reader. IC50 values were determined from curves of absorbance values obtained from serial dilutions of compounds (dissolved in dimethyl sulfoxide).
(§4) The IC50 value is defined as the drug concentration that inhibits the cytokine-induced adhesion molecule expression by 50%. Maximal values for adhesion molecule expression in cytokine-induced cultures was […] the basal level of adhesion molecule expression (minus cytokines) in the cultures to determine the level of induction. […] Each drug concentration was tested in quadruplicate wells. Single point tests of compounds at 50 μM were assayed as described for IC50 determinations, except that the data represent the level of inhibition without correction for basal expression. (Basal adhesion molecule expression was 10-20% of the total induced expression). Table 1 summarizes the ability of various compounds of this invention to inhibit VCAM-1 using human aortic smooth muscle cells (HASMC). In these experiments, the cells were coincubated with interleukin-4 and the compounds listed about 20 hr before assaying cell surface VCAM-1 levels. Each column represents a separate experiment.
(§5) In these experiments, the cells were coincubated with tumor necrosis factor-alpha along with the indicated compounds about 20 to 24 hr before assaying cell surface adhesion molecule expression.

VCAM-1 [5] = assay: Cell surface ELISA for VCAM-1 in human umbilical vein endothelial cells (HUVEC), TNF-alpha induced; type: cell-based; conditions: 50 μM, average of three runs
Procedure: as §2, §3, §4, §5

VCAM-1 [6] = assay: Cell surface ELISA for VCAM-1 in human aortic smooth muscle cells (HASMC), interleukin-4 induced; type: cell-based; conditions: 50 μm; for VCAM-1 (Avg.) % inh.: average of HSMC-1 to HSMC-3; for HSMC-1 % inh. of VCAM-1: experiment HSMC-1, interleukin-4, about 20 hr; for HSMC-2 % inh. of VCAM-1: experiment HSMC-2, interleukin-4, about 20 hr; for HSMC-3 % inh. of VCAM-1: experiment HSMC-3, interleukin-4, about 20 hr
Procedure: as §2, §3, §4

[7] = read-out: HDL cholesterol, percent of control
[8] = read-out: LDL cholesterol, percent of control
[9] = read-out: TRIG (triglycerides), percent of control
[10] = read-out: chol tot. (total cholesterol), percent of control

**Q.** What does the source list for `CC(C)(C)c1cc(OC[Si](C)(c2ccccc2)c2ccccc2)ccc1O` [MDL 107,917, 2-t-butyl-4-[(diphenylmethylsilyl)methyloxy]phenol]?
**A.** response vs control in vivo at 0.4 % [1, 7]: 86%; response vs control in vivo at 0.4 % [1, 8]: 165%; response vs control in vivo at 0.4 % [1, 9]: 129%; response vs control in vivo at 0.4 % [1, 10]: 151%; Liver Parent = parent compound concentration ([2]; diet 0.4%): 0 µg/g; Serum Parent = parent compound concentration ([2]; diet 0.4%): 0 µg/mL; response vs control in vivo at 0.4 % ([3]; diet 0.4%): 68%; food (grams eaten per day per rabbit), percent of control ([4]; diet 0.4%): 100%; body wt., percent of control ([4]; diet 0.4%): 99%; lw/bw (liver weight/body weight), percent of control ([4]; diet 0.4%): 106%

**Q.** Which results are given for `Cc1cc(O)c(C)c(C)c1OC[Si](C)(C)c1ccccc1` [MDL 103,653, 2,3,5-Trimethyl-4-[(dimethylphenylsilyl)methyloxy]phenol]?
**A.** ICAM-1 % inh. (ICAM-1): 78.5%; VCAM-1 % inh. (VCAM-1 [5]): 37.7%; VCAM-1 (Avg.) % inh. (VCAM-1 [6]): 56.4%; HSMC-1 % inh. of VCAM-1 (VCAM-1 [6]): 63.1%; HSMC-2 % inh. of VCAM-1 (VCAM-1 [6]): 54.0%; HSMC-3 % inh. of VCAM-1 (VCAM-1 [6]): 52.0%

**Q.** For `CC(C)(C)c1cc(SC[Si](C)(C)C)cc(C(C)(C)C)c1OC(=O)CCC(=O)O` [MDL 104,863, 2,6-Di-t-butyl-4-[(trimethylsilyl)methylthio]phenol succinic acid ester], which ICAM-1 % inh. (ICAM-1) is on record?
**A.** The ICAM-1 % inh. was 53%.

**Q.** And the VCAM-1 % inh. (VCAM-1 [5])?
**A.** The VCAM-1 % inh. was 44.3%.

**Q.** What about the “VCAM-1 (Avg.) % inh.” value (VCAM-1 [6]) of the same molecule?
**A.** The value was 54.8%.

**Q.** What about the “HSMC-1 % inh. of VCAM-1” value (VCAM-1 [6]) of the same molecule?
**A.** The value was 56.5%.

**Q.** And the “HSMC-2 % inh. of VCAM-1” value (VCAM-1 [6])?
**A.** Its value is 52.0%.

**Q.** And the “HSMC-3 % inh. of VCAM-1” value (VCAM-1 [6])?
**A.** The value was 56.0%.

**Q.** With `CC(C)(C)c1cc(OC[Si](C)(C)Cc2ccccc2)ccc1O` [MDL 108,804, 2-t-butyl-4-[(dimethylbenzylsilyl)methyloxy]phenol] as the molecule, how does the response vs control in vivo at 0.26 % [1, 7] read?
**A.** Its response vs control in vivo at 0.26 % is 109%.

**Q.** What about the response vs control in vivo at 0.26 % [1, 8] of the same molecule?
**A.** The response vs control in vivo at 0.26 % was 82%.

**Q.** What about the response vs control in vivo at 0.26 % [1, 9] of the same molecule?
**A.** The response vs control in vivo at 0.26 % was 143%.

**Q.** And the response vs control in vivo at 0.26 % [1, 10]?
**A.** The response vs control in vivo at 0.26 % was 91%.

**Q.** What about the “Liver Parent = parent compound concentration” value ([2]; diet 0.26%) of the same molecule?
**A.** Its value is 0 µg/g.

**Q.** And the “Serum Parent = parent compound concentration” value ([2]; diet 0.26%)?
**A.** Its value is 0 µg/mL.

**Q.** And the response vs control in vivo at 0.26 % ([3]; diet 0.26%)?
**A.** Its response vs control in vivo at 0.26 % is 49%.

**Q.** And the “food (grams eaten per day per rabbit), percent of control” value ([4]; diet 0.26%)?
**A.** The value was 100%.

**Q.** What about the “body wt., percent of control” value ([4]; diet 0.26%) of the same molecule?
**A.** The value was 101%.

**Q.** What about the “lw/bw (liver weight/body weight), percent of control” value ([4]; diet 0.26%) of the same molecule?
**A.** Its value is 96%.
